The supplement of paper PMC8671470

Tests used:
Assay in all cases: cell viability (% survival relative to DMSO control, bortezomib = 0%); higher = less cytotoxic
Conditions in all cases: 72 h
KU-812 = system: KU-812
Method in brief: (§1)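 Percent survival figures are means of duplicate wells. They were obtained by CellTiter-Glo luminescence after 10 AML and 5 CML cell lines spent 72 h at 37 °C with 5% CO2 in 384-well plates with compounds at 1, 10, 100, 1000 or 10000 nM. Vehicle was set to 100% and a 10 µM positive control to 0%.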

NOMO-1 = system: NOMO-1
Method in brief: as §1

Mono-Mac-6 = system: Mono-Mac-6
Method in brief: as §1

SHI-1 = system: SHI-1
Method in brief: as §1

Structure (SMILES) | cell viability (KU-812; 1 nM) [%] | cell viability (KU-812; 10 nM) [%] | cell viability (KU-812; 100 nM) [%] | cell viability (KU-812; 1000 nM) [%] | cell viability (KU-812; 10000 nM) [%] | cell viability (NOMO-1; 1 nM) [%] | cell viability (NOMO-1; 10 nM) [%] | cell viability (NOMO-1; 100 nM) [%] | cell viability (NOMO-1; 1000 nM) [%] | cell viability (NOMO-1; 10000 nM) [%] | cell viability (Mono-Mac-6; 1 nM) [%] | cell viability (Mono-Mac-6; 10 nM) [%] | cell viability (Mono-Mac-6; 100 nM) [%] | cell viability (Mono-Mac-6; 1000 nM) [%] | cell viability (Mono-Mac-6; 10000 nM) [%] | cell viability (SHI-1; 1 nM) [%] | cell viability (SHI-1; 10 nM) [%] | cell viability (SHI-1; 100 nM) [%] | cell viability (SHI-1; 1000 nM) [%] | cell viability (SHI-1; 10000 nM) [%]
CCOC(=O)[C@H]1O[C@@H]1C(=O)N[C@@H](CC(C)C)C(=O)NCCC(C)C [Aloxistatin] | 94 | 104 | 103 | 105 | 96.5 | 96.2 | 109 | 100 | 96.2 | 24.4 | 97.3 | 108 | 104 | 89 | 81.7 | 102 | 92.6 | 104 | 102 | 92.5
N[C@](CCCCB(O)O)(CCN1CCCCC1)C(=O)O [Arginase inhibitor 1] | 102 | 84.6 | 85.6 | 108 | 89.4 | 91.3 | 94.5 | 103 | 96.4 | 93.9 | 101 | 83.8 | 93.1 | 93.8 | 94.5 | 92 | 105 | 90.1 | 110 | 92.8
Cc1noc2c1-c1ccccc1C(c1ccc(Cl)cc1)=N[C@H]2CC(N)=O [CPI-0610] | 97.2 | 99.8 | 73.1 | 36 | 4.66 | 102 | 96.3 | 79 | 33.6 | 11.7 | 99.7 | 89.3 | 65.7 | 17 | 15.9 | 105 | 94.5 | 88.8 | 44.4 | 21.8
Nc1ccn([C@@H]2O[C@H](CO)[C@@H](O)[C@@H]2O)c(=O)n1 [Cytarabine] | 97 | 81.8 | 24.6 | 7.19 | 5.66 | 107 | 105 | 89.6 | 78.1 | 9.44 | 95.1 | 86.4 | 79.8 | 19.1 | 3.49 | 102 | 92.6 | 58 | 14.6 | 2.46
CCOc1ccc(Cc2cc([C@@H]3O[C@H](CO)[C@@H](O)[C@H](O)[C@H]3O)ccc2Cl)cc1 [Dapagliflozin] | 85.7 | 96.5 | 90.5 | 106 | 81.3 | 95.2 | 101 | 88.1 | 104 | 97 | 91.5 | 95.1 | 87.5 | 91.7 | 88.8 | 99.4 | 114 | 85.2 | 91.1 | 107
CCN(CC)CCN(Cc1ccc(-c2ccc(C(F)(F)F)cc2)cc1)C(=O)Cn1c(SCc2ccc(F)cc2)nc(=O)c2c1CCC2 [Darapladib] | 110 | 93.6 | 100 | 80.7 | -0.56 | 98.6 | 98.8 | 97 | 93.8 | -0.418 | 97 | 90.9 | 101 | 93.3 | -0.318 | 107 | 107 | 97.4 | 90.6 | -0.412
O=C(O)C(Cl)Cl [Dichloroacetate] | 97.1 | 90.9 | 99 | 108 | 100 | 101 | 98.9 | 102 | 102 | 103 | 92.4 | 92.4 | 113 | 98.8 | 102 | 99.7 | 104 | 96.8 | 101 | 103
O=C1Oc2ccccc2C(=O)C1CC1C(=O)Oc2ccccc2C1=O (stereo not given) [Dicumarol] | 110 | 95.6 | 84.2 | 97.8 | 107 | 99.4 | 101 | 98.8 | 109 | 96.3 | 103 | 111 | 86.5 | 95.7 | 106 | 95.8 | 105 | 104 | 106 | 105
CC12CCC(O)CC1CCC1C2CCC2(C)C(C3=CC(=O)OC3)CCC12O (stereo not given) [Digitoxigenin] | 105 | 97.4 | 101 | 7.21 | 3.46 | 110 | 96 | 109 | 11.3 | -1.17 | 111 | 89.6 | 83 | 1.4 | -1.27 | 108 | 108 | 103 | 4.47 | -0.733
C[C@H]1O[C@@H](O[C@H]2[C@@H](O)C[C@H](O[C@H]3[C@@H](O)C[C@H](O[C@H]4CC[C@@]5(C)[C@H](CC[C@@H]6[C@@H]5C[C@@H](O)[C@]5(C)[C@@H](C7=CC(=O)OC7)CC[C@]65O)C4)O[C@@H]3C)O[C@@H]2C)C[C@H](O)[C@@H]1O [Digoxin] | 92.2 | 113 | 30.5 | 4.45 | 4.24 | 97.9 | 105 | 60.3 | -0.211 | -0.0253 | 94.6 | 100 | 13 | -0.503 | -0.351 | 115 | 94.9 | 17.8 | 0.649 | 0.63
O=c1c2ccccc2[se]n1-c1ccccc1 [Ebselen] | 94.5 | 104 | 89.5 | 99.4 | 87.8 | 93.7 | 103 | 97.3 | 94.3 | 102 | 99.1 | 93.8 | 103 | 98.1 | 84.6 | 107 | 96.5 | 106 | 92.6 | 88.6
Clc1ccc(COC(Cn2ccnc2)c2ccc(Cl)cc2Cl)cc1 (stereo not given) [Econazole] | 113 | 101 | 87.2 | 89.5 | 41.9 | 105 | 84.8 | 98.2 | 93.2 | 89.1 | 102 | 92.1 | 86.7 | 78.4 | 58.8 | 112 | 91 | 98.8 | 87.2 | 62.1
C#Cc1cnc(O)nc1O [Eniluracil] | 94.9 | 109 | 95.2 | 94.3 | 89.7 | 96.4 | 103 | 101 | 104 | 109 | 104 | 125 | 105 | 106 | 97.4 | 97.7 | 106 | 114 | 103 | 102
